Data taken from PubChem BioAssay (NCI).
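Growth conditions: 96-well plates. Treatment: test compound, 48 hours, 5 concentrations. Analysis: linear interpolation between bracketing concentrations; unreached endpoints set to highest concentration. The concentration for 50% growth inhibition is given as GI50. TGI marks complete inhibition of growth.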

What was measured:
Experiment in all cases: NCI tumour cell line growth inhibition, 48 h
[1] = tested on: 786-0 renal
[2] = tested on: A498 renal
[3] = tested on: A549 NSCLC
[4] = tested on: ACHN renal
[5] = tested on: BT-549 breast
[6] = tested on: CAKI-1 renal
[7] = tested on: CCRF-CEM leukemia
[8] = tested on: COLO 205 colon
[9] = tested on: DU-145 prostate
[10] = tested on: EKVX NSCLC
[11] = tested on: HCC-2998 colon
[12] = tested on: HCT-116 colon
[13] = tested on: HCT-15 colon
[14] = tested on: HL-60(TB) leukemia
[15] = tested on: HOP-62 NSCLC
[16] = tested on: HOP-92 NSCLC
[17] = tested on: HS 578T breast
[18] = tested on: HT29 colon
[19] = tested on: IGROV1 ovarian
[20] = tested on: K-562 leukemia
[21] = tested on: KM12 colon
[22] = tested on: LOX IMVI melanoma
[23] = tested on: M14 melanoma
[24] = tested on: MALME-3M melanoma
[25] = tested on: MCF7 breast
[26] = tested on: MDA-MB-231 breast
[27] = tested on: MDA-MB-435
[28] = tested on: MOLT-4 leukemia
[29] = tested on: NCI-H226 lung
[30] = tested on: NCI-H23 lung
[31] = tested on: NCI-H460 lung
[32] = tested on: NCI-H522 lung
[33] = tested on: NCI/ADR-RES ovarian
[34] = tested on: OVCAR-3 ovarian
[35] = tested on: OVCAR-4 ovarian
[36] = tested on: OVCAR-5 ovarian
[37] = tested on: OVCAR-8 ovarian
[38] = tested on: PC-3 prostate
[39] = tested on: RPMI-8226 leukemia
[40] = tested on: RXF 393 renal
[41] = tested on: SF-268 CNS
[42] = tested on: SF-295 CNS
[43] = tested on: SF-539 CNS
[44] = tested on: SK-MEL-2 melanoma
[45] = tested on: SK-MEL-28 melanoma
[46] = tested on: SK-MEL-5 melanoma
[47] = tested on: SK-OV-3 ovarian
[48] = tested on: SN12C renal
[49] = tested on: SNB-19 CNS
[50] = tested on: SNB-75 CNS
[51] = tested on: SR leukemia
[52] = tested on: SW-620 colon
[53] = tested on: T-47D breast
[54] = tested on: TK-10 renal
[55] = tested on: U251 CNS
[56] = tested on: UACC-257 melanoma
[57] = tested on: UACC-62 melanoma
[58] = tested on: UO-31 renal

For `COc1cccc(-n2ncc3c(N/N=C/c4ccc(F)cc4)ncnc32)c1`, the GI50 [1] was 11.8 µM, the TGI [1] was > 19.5 µM and the GI50 [2] was > 16.1 µM. For the same compound, the TGI [2] was > 25 µM, the GI50 [3] was 11.6 µM and the TGI [3] was > 25 µM. For the same compound, the GI50 [4] was > 25 µM, the TGI [4] was > 25 µM and the GI50 [5] was > 25 µM. For the same compound, the TGI [5] was > 25 µM, the GI50 [6] was > 18.7 µM and the TGI [6] was > 25 µM. For the same compound, the GI50 [7] was > 25 µM, the TGI [7] was > 25 µM and the GI50 [8] was > 25 µM. For the same compound, the TGI [8] was > 25 µM, the GI50 [9] was 17.4 µM and the TGI [9] was > 25 µM. For the same compound, the GI50 [10] was > 25 µM, the TGI [10] was > 25 µM and the GI50 [11] was > 25 µM. The TGI [11] was > 25 µM, the GI50 [12] was 10.2 µM and the TGI [12] was > 25 µM. The GI50 [13] was > 25 µM, the TGI [13] was > 25 µM and the GI50 [14] was > 25 µM. The TGI [14] was > 25 µM, the GI50 [15] was 16.7 µM and the TGI [15] was > 25 µM. The GI50 [16] was 6.48 µM, the TGI [16] was 19.9 µM and the GI50 [17] was 7.51 µM. For the same compound, the TGI [17] was 22.1 µM, the GI50 [18] was > 25 µM and the TGI [18] was > 25 µM. For the same compound, the GI50 [19] was > 25 µM, the TGI [19] was > 25 µM and the GI50 [20] was > 25 µM. For the same compound, the TGI [20] was > 25 µM, the GI50 [21] was 18.4 µM and the TGI [21] was > 25 µM. The GI50 [22] was > 25 µM, the TGI [22] was > 25 µM and the GI50 [23] was > 23.6 µM. For the same compound, the TGI [23] was > 25 µM, the GI50 [24] was 11.3 µM and the TGI [24] was > 25 µM. The GI50 [25] was > 17 µM, the TGI [25] was > 25 µM and the GI50 [26] was 8.59 µM. For the same compound, the TGI [26] was > 25 µM, the GI50 [27] was 14.5 µM and the TGI [27] was > 25 µM. For the same compound, the GI50 [28] was > 25 µM, the TGI [28] was > 25 µM and the GI50 [29] was > 25 µM. For the same compound, the TGI [29] was > 25 µM, the GI50 [30] was > 20.1 µM and the TGI [30] was > 25 µM. The GI50 [31] was 10.3 µM, the TGI [31] was 24.7 µM and the GI50 [32] was > 19.1 µM. The TGI [32] was > 25 µM, the GI50 [33] was 14.2 µM and the TGI [33] was > 25 µM. It also gave a GI50 [34] of 5.27 µM, a TGI [34] of 10.3 µM and a GI50 [35] of 6.55 µM. For the same compound, the TGI [35] was 14.5 µM, the GI50 [36] was > 25 µM and the TGI [36] was > 25 µM. The GI50 [37] was 14.8 µM, the TGI [37] was > 25 µM and the GI50 [38] was > 25 µM. The TGI [38] was > 25 µM, the GI50 [39] was > 25 µM and the TGI [39] was > 25 µM. For the same compound, the GI50 [40] was 10.6 µM, the TGI [40] was 24.9 µM and the GI50 [41] was > 25 µM. For the same compound, the TGI [41] was > 25 µM, the GI50 [42] was > 25 µM and the TGI [42] was > 25 µM. The GI50 [43] was 13.9 µM, the TGI [43] was > 25 µM and the GI50 [44] was > 25 µM. For the same compound, the TGI [44] was > 25 µM, the GI50 [45] was > 25 µM and the TGI [45] was > 25 µM. The GI50 [46] was 14.7 µM, the TGI [46] was > 25 µM and the GI50 [47] was 13.6 µM. The TGI [47] was > 25 µM, the GI50 [48] was 23 µM and the TGI [48] was > 25 µM. For the same compound, the GI50 [49] was 24.5 µM, the TGI [49] was > 25 µM and the GI50 [50] was 5.98 µM. The TGI [50] was > 18.6 µM, the GI50 [51] was > 25 µM and the TGI [51] was > 25 µM. The GI50 [52] was 24.3 µM, the TGI [52] was > 25 µM and the GI50 [53] was 11.6 µM. For the same compound, the TGI [53] was > 25 µM, the GI50 [54] was 12.4 µM and the TGI [54] was > 23.3 µM. The GI50 [55] was 8.81 µM, the TGI [55] was > 21.9 µM and the GI50 [56] was > 25 µM. For the same compound, the TGI [56] was > 25 µM, the GI50 [57] was > 25 µM and the TGI [57] was > 25 µM. The GI50 [58] was > 14.6 µM and the TGI [58] was > 25 µM.
